Laboratory results as given in patent US9738612B2, “Methylacryloyl benzimidazolone derivative and anti-tumour use thereof” (SHANGHAI NATURE STANDARD R&D AND BIOTECH CO., LTD, priority 2014, dated 2017).

What was measured:
Test in all cases: Tumor-associated kinase inhibition test
Format in all cases: biochemical
Settings in all cases: read-out: Inhibitory rate (%)
CDK1/cyclinB(h) = target: T1, CDK1/cyclinB(h) (Homo sapiens, UniProt P06493)
T1 construct: purchased Eurofins Pharma Discovery Services UK Limited (contract assay service)
Text: (§1) Eurofins Pharma Discovery Services UK Limited completed and reported this experiment.

ASK1(h) = target: T2, ASK1(h) (Homo sapiens, UniProt Q99683)
T2 construct: purchased Eurofins Pharma Discovery Services UK Limited (contract assay service)
Text: as §1

PKD2(h) = target: T3, PKD2(h) (Homo sapiens, UniProt Q9BZL6)
T3 construct: purchased Eurofins Pharma Discovery Services UK Limited
Text: as §1

Fms(h) = target: T4, Fms(h) (Homo sapiens, UniProt P07333)
T4 construct: purchased Eurofins Pharma Discovery Services UK Limited (contract testing)
Text: as §1

Met(h) = target: T5, Met(h) (Homo sapiens, UniProt P08581)
T5 construct: purchased Eurofins Pharma Discovery Services UK Limited
T5 sequence (P08581 25-1390): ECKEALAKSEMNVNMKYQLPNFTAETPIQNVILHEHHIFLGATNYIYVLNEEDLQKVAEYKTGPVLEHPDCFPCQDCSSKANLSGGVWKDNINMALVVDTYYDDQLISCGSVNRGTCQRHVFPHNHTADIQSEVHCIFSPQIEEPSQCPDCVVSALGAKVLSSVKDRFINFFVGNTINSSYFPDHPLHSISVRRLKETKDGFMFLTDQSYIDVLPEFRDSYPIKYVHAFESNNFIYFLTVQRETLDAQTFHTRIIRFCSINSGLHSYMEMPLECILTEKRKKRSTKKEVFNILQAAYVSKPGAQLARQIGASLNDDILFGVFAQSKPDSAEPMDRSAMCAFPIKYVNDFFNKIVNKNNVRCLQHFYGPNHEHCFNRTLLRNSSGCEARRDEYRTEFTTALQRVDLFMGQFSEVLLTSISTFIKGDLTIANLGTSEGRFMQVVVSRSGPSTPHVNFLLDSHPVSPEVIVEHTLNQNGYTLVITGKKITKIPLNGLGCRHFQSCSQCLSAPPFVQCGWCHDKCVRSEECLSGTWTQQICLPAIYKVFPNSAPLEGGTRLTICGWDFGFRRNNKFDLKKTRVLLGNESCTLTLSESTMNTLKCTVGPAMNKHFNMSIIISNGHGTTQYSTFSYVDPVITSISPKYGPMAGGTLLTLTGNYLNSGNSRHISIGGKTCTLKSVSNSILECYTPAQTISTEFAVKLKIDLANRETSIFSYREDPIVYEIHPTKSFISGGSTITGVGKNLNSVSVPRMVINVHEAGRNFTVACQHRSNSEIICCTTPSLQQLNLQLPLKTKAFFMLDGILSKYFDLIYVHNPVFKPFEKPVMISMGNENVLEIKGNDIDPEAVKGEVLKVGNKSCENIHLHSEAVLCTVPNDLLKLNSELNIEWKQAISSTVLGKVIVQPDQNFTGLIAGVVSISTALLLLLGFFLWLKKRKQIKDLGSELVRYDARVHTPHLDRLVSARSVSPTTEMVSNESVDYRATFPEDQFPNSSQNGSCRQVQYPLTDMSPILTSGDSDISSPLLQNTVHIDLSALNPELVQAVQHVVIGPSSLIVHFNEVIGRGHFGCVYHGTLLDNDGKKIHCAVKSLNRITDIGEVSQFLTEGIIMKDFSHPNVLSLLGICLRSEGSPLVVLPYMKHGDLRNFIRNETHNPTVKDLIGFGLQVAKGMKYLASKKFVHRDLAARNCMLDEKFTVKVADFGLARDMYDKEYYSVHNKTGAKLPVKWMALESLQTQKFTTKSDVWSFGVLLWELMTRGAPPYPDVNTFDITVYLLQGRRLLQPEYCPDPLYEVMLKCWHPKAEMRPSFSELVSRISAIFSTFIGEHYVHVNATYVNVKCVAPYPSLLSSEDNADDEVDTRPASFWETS
Text: as §1

Rsk3(h) = target: T6, Rsk3(h) (Homo sapiens, UniProt Q15349)
T6 construct: purchased Eurofins Pharma Discovery Services UK Limited
T6 sequence (Q15349 whole entry): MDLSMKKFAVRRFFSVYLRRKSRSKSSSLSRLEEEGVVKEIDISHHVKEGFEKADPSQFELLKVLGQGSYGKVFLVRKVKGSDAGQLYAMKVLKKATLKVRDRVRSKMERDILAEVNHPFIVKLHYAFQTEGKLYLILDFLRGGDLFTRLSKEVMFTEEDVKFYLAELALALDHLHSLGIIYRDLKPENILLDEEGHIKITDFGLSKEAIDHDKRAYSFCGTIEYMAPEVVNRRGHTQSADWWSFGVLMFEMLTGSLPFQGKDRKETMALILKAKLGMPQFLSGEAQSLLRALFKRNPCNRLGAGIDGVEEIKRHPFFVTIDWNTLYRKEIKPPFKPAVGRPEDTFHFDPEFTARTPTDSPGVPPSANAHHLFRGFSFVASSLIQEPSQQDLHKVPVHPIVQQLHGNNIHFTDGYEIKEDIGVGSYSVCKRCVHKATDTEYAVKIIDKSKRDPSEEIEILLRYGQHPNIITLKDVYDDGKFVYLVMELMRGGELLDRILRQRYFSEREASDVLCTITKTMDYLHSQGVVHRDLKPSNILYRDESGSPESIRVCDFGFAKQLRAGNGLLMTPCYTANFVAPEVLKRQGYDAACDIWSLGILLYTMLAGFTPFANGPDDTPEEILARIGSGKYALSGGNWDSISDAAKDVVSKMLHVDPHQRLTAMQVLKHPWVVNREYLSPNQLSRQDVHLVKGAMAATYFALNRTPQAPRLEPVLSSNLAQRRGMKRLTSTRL
Text: as §1

Pim-1(h) = target: T7, Pim-1(h) (Homo sapiens, UniProt P11309)
T7 construct: purchased Eurofins Pharma Discovery Services UK Limited
T7 sequence (P11309 whole entry): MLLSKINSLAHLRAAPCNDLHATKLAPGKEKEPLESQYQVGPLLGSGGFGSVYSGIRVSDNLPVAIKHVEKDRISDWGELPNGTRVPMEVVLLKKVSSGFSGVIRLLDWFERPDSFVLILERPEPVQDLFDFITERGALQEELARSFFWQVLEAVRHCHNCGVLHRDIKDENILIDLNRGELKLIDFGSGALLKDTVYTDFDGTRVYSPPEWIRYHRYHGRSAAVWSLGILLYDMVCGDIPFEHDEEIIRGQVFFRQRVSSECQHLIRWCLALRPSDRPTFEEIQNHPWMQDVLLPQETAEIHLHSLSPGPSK
Text: as §1

PKCθ(h) = target: T8, PKCθ(h) (Homo sapiens, UniProt Q04759)
T8 construct: purchased Eurofins Pharma Discovery Services UK Limited
Text: as §1

PDGFRα(h) = target: T9, PDGFRα(h) (Homo sapiens, UniProt P16234)
T9 construct: purchased Eurofins Pharma Discovery Services UK Limited
Text: as §1

PKA(h) = target: T10, PKA(h) (Homo sapiens, UniProt P17612)
T10 construct: purchased Eurofins Pharma Discovery Services UK Limited
Text: as §1

PIP5K1α(h) = target: T11, PIP5K1α(h) (Homo sapiens, UniProt Q99755)
T11 construct: purchased Eurofins Pharma Discovery Services UK Limited (contract assay)
Text: as §1

ROCK-I(h) = target: T12, ROCK-I(h) (Homo sapiens, UniProt Q13464)
T12 construct: purchased Eurofins Pharma Discovery Services UK Limited
Text: as §1

Syk(h) = target: T13, Syk(h) (Homo sapiens, UniProt P43405)
T13 construct: purchased Eurofins Pharma Discovery Services UK Limited
Text: as §1

EphB2(h) = target: T14, EphB2(h) (Homo sapiens, UniProt P29323)
T14 construct: purchased Eurofins Pharma Discovery Services UK Limited (contract testing)
Text: as §1

IGF-1R(h), activated = target: T15, IGF-1R(h), activated (Homo sapiens, UniProt P08069)
T15 construct: purchased Eurofins Pharma Discovery Services UK Limited (contract testing)
Text: as §1

Yes(h) = target: T16, Yes(h) (Homo sapiens, UniProt P07947)
T16 construct: purchased Eurofins Pharma Discovery Services UK Limited
Text: as §1

PAK2(h) = target: T17, PAK2(h) (Homo sapiens, UniProt Q13177)
T17 construct: purchased Eurofins Pharma Discovery Services UK Limited
Text: as §1

IRAK1(h) = target: T18, IRAK1(h) (Homo sapiens, UniProt P51617)
T18 construct: purchased Eurofins Pharma Discovery Services UK Limited (contract testing)
T18 sequence (P51617 whole entry): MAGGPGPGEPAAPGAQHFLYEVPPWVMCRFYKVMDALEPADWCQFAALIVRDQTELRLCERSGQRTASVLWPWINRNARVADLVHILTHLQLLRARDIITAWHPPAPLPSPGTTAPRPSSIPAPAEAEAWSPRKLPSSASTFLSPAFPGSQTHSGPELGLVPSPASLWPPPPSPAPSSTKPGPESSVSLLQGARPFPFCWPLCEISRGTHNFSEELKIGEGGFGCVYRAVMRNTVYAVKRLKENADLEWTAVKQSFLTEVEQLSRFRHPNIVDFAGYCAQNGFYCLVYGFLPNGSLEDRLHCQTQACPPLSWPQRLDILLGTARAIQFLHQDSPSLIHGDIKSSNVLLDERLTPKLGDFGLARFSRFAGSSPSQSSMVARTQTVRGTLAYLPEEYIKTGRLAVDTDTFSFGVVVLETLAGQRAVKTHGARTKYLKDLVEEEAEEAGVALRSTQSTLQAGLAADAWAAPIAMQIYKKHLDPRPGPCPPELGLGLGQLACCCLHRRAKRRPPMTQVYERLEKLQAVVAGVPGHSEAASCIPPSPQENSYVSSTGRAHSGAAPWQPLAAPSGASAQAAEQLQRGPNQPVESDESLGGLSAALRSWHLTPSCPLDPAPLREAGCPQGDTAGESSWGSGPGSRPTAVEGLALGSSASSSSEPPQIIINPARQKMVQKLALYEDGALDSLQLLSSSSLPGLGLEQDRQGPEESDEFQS
Text: as §1

Ron(h) = target: T19, Ron(h) (Homo sapiens, UniProt Q04912)
T19 construct: purchased Eurofins Pharma Discovery Services UK Limited
Text: as §1

MKK6(h) = target: T20, MKK6(h) (Homo sapiens, UniProt P52564)
T20 construct: purchased Eurofins Pharma Discovery Services UK Limited
T20 sequence (P52564 whole entry): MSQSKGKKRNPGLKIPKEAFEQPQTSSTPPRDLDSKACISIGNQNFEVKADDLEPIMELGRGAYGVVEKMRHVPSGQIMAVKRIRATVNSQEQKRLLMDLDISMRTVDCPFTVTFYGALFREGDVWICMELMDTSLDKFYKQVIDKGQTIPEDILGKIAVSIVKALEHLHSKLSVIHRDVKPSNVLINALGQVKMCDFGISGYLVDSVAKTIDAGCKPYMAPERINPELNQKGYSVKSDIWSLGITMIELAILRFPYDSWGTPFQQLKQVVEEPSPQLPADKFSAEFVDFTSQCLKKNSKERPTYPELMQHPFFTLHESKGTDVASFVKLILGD
Text: as §1

FGFR3(h) = target: T21, FGFR3(h) (Homo sapiens, UniProt P22607)
T21 construct: purchased Eurofins Pharma Discovery Services UK Limited (contract testing)
Text: as §1

MEK1(h) = target: T22, MEK1(h) (Homo sapiens, UniProt Q02750)
T22 construct: purchased Eurofins Pharma Discovery Services UK Limited
T22 sequence (Q02750 whole entry): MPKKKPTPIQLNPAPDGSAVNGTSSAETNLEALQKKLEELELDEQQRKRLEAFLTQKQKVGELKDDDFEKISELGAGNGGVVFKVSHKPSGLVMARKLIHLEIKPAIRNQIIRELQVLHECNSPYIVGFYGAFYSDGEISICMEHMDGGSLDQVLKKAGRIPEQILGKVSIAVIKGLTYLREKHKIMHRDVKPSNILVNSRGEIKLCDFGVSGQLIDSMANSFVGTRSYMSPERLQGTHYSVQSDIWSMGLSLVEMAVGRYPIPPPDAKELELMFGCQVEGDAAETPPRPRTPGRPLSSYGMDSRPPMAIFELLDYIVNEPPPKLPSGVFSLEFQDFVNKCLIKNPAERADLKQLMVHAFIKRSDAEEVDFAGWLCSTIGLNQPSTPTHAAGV
Text: as §1

PI3Kinase(p120γ)(h) = target: T23, PI3Kinase(p120γ)(h) (Homo sapiens, UniProt P48736)
T23 construct: purchased Eurofins Pharma Discovery Services UK Limited (contract assay)
Text: as §1

Abl(h) = target: T24, Abl(h) (Homo sapiens, UniProt P00519)
T24 construct: purchased Eurofins Pharma Discovery Services UK Limited (contract assay service)
T24 sequence (P00519 whole entry): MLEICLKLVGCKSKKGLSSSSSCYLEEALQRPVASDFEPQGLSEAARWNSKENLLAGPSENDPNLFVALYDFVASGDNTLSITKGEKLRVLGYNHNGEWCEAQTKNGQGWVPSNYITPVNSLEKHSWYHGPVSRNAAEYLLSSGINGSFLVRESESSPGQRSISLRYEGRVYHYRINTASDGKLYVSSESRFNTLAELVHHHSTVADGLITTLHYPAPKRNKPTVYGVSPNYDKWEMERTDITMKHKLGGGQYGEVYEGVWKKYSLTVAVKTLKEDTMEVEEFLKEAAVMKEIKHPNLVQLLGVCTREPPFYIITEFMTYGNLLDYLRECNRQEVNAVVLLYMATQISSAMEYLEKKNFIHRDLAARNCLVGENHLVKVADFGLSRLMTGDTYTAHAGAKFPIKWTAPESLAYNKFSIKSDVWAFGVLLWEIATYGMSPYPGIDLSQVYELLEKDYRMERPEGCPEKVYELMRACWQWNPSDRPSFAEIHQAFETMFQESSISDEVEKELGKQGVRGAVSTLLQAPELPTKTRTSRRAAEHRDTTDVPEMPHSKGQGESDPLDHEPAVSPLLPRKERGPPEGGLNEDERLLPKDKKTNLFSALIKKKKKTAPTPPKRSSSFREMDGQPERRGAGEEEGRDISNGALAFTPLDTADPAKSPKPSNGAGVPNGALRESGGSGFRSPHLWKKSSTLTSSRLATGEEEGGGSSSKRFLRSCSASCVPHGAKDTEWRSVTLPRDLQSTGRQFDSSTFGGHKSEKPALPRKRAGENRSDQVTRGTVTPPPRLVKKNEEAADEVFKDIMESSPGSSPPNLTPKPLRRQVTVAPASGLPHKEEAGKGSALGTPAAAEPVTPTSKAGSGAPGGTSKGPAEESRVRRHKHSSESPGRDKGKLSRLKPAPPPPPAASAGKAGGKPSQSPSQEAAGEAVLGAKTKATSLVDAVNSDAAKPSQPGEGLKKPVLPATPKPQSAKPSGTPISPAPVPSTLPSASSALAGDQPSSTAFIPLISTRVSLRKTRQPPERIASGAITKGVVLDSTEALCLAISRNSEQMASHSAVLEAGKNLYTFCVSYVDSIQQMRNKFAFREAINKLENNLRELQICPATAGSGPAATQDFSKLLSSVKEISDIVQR
Text: as §1

CDK5/p35(h) = target: T25, CDK5/p35(h) (Homo sapiens, UniProt Q00535)
T25 construct: purchased Eurofins Pharma Discovery Services UK Limited (contract assay service)
Text: as §1

CDK7/cyclinH/MAT1(h) = target: T26, CDK7/cyclinH/MAT1(h) (Homo sapiens, UniProt P50613)
T26 construct: purchased Eurofins Pharma Discovery Services UK Limited (contract assay service)
Text: as §1

CDK2/cyclinE(h) = target: T27, CDK2/cyclinE(h) (Homo sapiens, UniProt P24941)
T27 construct: purchased Eurofins Pharma Discovery Services UK Limited (contract assay service)
Text: as §1

Bmx(h) = target: T28, Bmx(h) (Homo sapiens, UniProt P51813)
T28 construct: purchased Eurofins Pharma Discovery Services UK Limited (contract assay service)
Text: as §1

CK1δ(h) = target: T29, CK1δ(h) (Homo sapiens, UniProt P48730)
T29 construct: purchased Eurofins Pharma Discovery Services UK Limited (contract testing)
Text: as §1

PAR-1Bα(h) = target: T30, PAR-1Bα(h) (Homo sapiens, UniProt Q7KZI7)
T30 construct: purchased Eurofins Pharma Discovery Services UK Limited
Text: as §1

FAK(h) = target: T31, FAK(h) (Homo sapiens, UniProt Q05397)
T31 construct: purchased Eurofins Pharma Discovery Services UK Limited (contract testing)
Text: as §1

PKBγ(h) = target: T32, PKBγ(h) (Homo sapiens, UniProt Q9Y243)
T32 construct: purchased Eurofins Pharma Discovery Services UK Limited
Text: as §1

Ret(h) = target: T33, Ret(h) (Homo sapiens, UniProt P07949)
T33 construct: purchased Eurofins Pharma Discovery Services UK Limited
Text: as §1

Flt3(h) = target: T34, Flt3(h) (Homo sapiens, UniProt P36888)
T34 construct: purchased Eurofins Pharma Discovery Services UK Limited (contract testing)
Text: as §1

c-RAF(h) = target: T35, c-RAF(h) (Homo sapiens, UniProt P04049)
T35 construct: purchased Eurofins Pharma Discovery Services UK Limited (contract testing)
Text: as §1

MAPK2(h) = target: T36, MAPK2(h) (Homo sapiens, UniProt P28482)
T36 construct: purchased Eurofins Pharma Discovery Services UK Limited
Text: as §1

Plk1(h) = target: T37, Plk1(h) (Homo sapiens, UniProt P53350)
T37 construct: purchased Eurofins Pharma Discovery Services UK Limited
Text: as §1

PKCε(h) = target: T38, PKCε(h) (Homo sapiens, UniProt Q02156)
T38 construct: purchased Eurofins Pharma Discovery Services UK Limited
Text: as §1

Fes(h) = target: T39, Fes(h) (Homo sapiens, UniProt P07332)
T39 construct: purchased Eurofins Pharma Discovery Services UK Limited (contract testing)
Text: as §1

MAPK1(h) = target: T40, MAPK1(h) (Homo sapiens, UniProt P27361)
T40 construct: purchased Eurofins Pharma Discovery Services UK Limited
Text: as §1

inhibition at 10 µM (CDK1/cyclinB(h)): 1%
inhibition at 10 µM (ASK1(h)): 4%
inhibition at 10 µM (PKD2(h)): 11%
inhibition at 10 µM (Fms(h)): -9%
inhibition at 10 µM (Met(h)): -9%
inhibition at 10 µM (Rsk3(h)): 2%
inhibition at 10 µM (Pim-1(h)): 3%
inhibition at 10 µM (PKCθ(h)): -3%
inhibition at 10 µM (PDGFRα(h)): -9%
inhibition at 10 µM (PKA(h)): -5%
inhibition at 10 µM (PIP5K1α(h)): -2%
inhibition at 10 µM (ROCK-I(h)): -4%
inhibition at 10 µM (Syk(h)): 0%
inhibition at 10 µM (EphB2(h)): 7%
inhibition at 10 µM (IGF-1R(h), activated): 0%
inhibition at 10 µM (Yes(h)): -2%
inhibition at 10 µM (PAK2(h)): 8%
inhibition at 10 µM (IRAK1(h)): 9%
inhibition at 10 µM (Ron(h)): 8%
inhibition at 10 µM (MKK6(h)): 5%
inhibition at 10 µM (FGFR3(h)): 7%
inhibition at 10 µM (MEK1(h)): -2%
inhibition at 10 µM (PI3Kinase(p120γ)(h)): 2%
inhibition at 10 µM (Abl(h)): 2%
inhibition at 10 µM (CDK5/p35(h)): 0%
inhibition at 10 µM (CDK7/cyclinH/MAT1(h)): -8%
inhibition at 10 µM (CDK2/cyclinE(h)): 0%
inhibition at 10 µM (Bmx(h)): -7%
inhibition at 10 µM (CK1δ(h)): 7%
inhibition at 10 µM (PAR-1Bα(h)): 6%
inhibition at 10 µM (FAK(h)): 1%
inhibition at 10 µM (PKBγ(h)): 8%
inhibition at 10 µM (Ret(h)): 7%
inhibition at 10 µM (Flt3(h)): 4%
inhibition at 10 µM (c-RAF(h)): -3%
inhibition at 10 µM (MAPK2(h)): -6%
inhibition at 10 µM (Plk1(h)): 7%
inhibition at 10 µM (PKCε(h)): -1%
inhibition at 10 µM (Fes(h)): -8%
inhibition at 10 µM (MAPK1(h)): 8%
SMILES: C=C(C)n1c(=O)n(C(C)=O)c2ncc(Br)cc21 [FD162]
